Converted amounts (≈) assume the structure as drawn. “And” between values parts separate entries of the source, which are not always exact repeats. Equal entries are not always repeated. Square brackets hold non-standard residues; d marks the D form. Peptide text beside a SMILES is read from it.
Experiments:
[1] = test system: dsDNA-stimulated THP1 cells; assay: qPCR of IFNB1/CXCL10/IL6 mRNA in THP1 cells stimulated by dsDNA (ISD, HSV60mer); type: cell-based, human; conditions: for IFNB1 mRNA level (Fig. S7c): XQ2B; for Relative mRNA level CXCL10 (Fig. S7d) / Relative mRNA level IFNB1 (Fig. S7d) / Relative mRNA level IL6 (Fig. S7d): ISD +
Source text: To screen direct cGAS inhibitors targeting protein-DNA interface from our developed focused library of macrocyclic peptides, we applied an RNA-based fluorescent biosensor for 2’,3’-cGAMP to detect cGAS activity in vitro (Supplementary Fig. 1a)[49]. The formation of 2’,3’-cGAMP from ATP and GTP was catalyzed by recombinant human cGAS enzyme (hcGAS-ΔN, residues 147–522, Supplementary Fig. 1b) in the presence of ISD (interferon stimulatory DNA, a 45-bp dsDNA), which was readily quantified by the RNA-based fluorescent biosensor and was further confirmed by ion exchange chromatography (Supplementary Fig. 1c). […] Subsequently, a total of 90 macrocyclic peptides were screened at a concentration of 20 μM (Fig. 1a and Supplementary Fig. 1e), and 4 hits (XQ2, XQ8, XQ19, and XQ46) were obtained for further testing at a cut-off of 40% inhibition (Supplementary Table 1). To evaluate the inhibitory effect of the hits against cGAS in cells, we employed real-time quantitative PCR (qPCR) to examine mRNA levels of IFNΒ1 in THP1 cells. The reported cGAS inhibitor RU.521 was used as the positive control, and the non-active peptide XQ28 in the screening assay was used as the negative control. […] The inhibition of cGAS by these hits was further confirmed in the reporter cell line THP1-Lucia ISG (Invivogen) that expresses secreted luciferase induced by an IRF3-inducible ISG54 promoter (Fig. 1c). The discrepancy between the inhibitory effect of the hits in protein and cellular assays may be attributed to their different cellular permeability.
The indicated cells were stimulated with either ISD (Sangon Biotech), HSV-1 (Provided by Dr. Zhengfan Jiang), HSV60mer (Sangon Biotech), SATE-cddA[70], 2’3’-cGAMP (Invivogen, Cat# tlrl-nacga23-1), ADU-S100 (MedChemExpress, Cat# HY-12885A) or Poly(I:C) (Invivogen, Cat# tlrl-pic) after XQ2 or XQ2B treatment. Total RNA was isolated from indicated cells that incubated with the drugs for indicated time or mice tissues by using NucleoZOL reagent (MACHEREY-NAGEL) according to the manufacturer’s instructions. The quantifications of mRNA levels were carried out by real-time PCR using a PerfectStart® Uni RT&qPCR Kit (TransGen Biotech) on the QuantStudio 5 qPCR machine (Applied Biosystems). Samples were carried out in triplicate and the target CT values were normalized to GAPDH CT values. Primers of qPCR used in this study can be found in Supplementary Table S2.

[2] = test system: L929 cells; assay: ISD-induced autophagy, LC3-II immunoblotting; type: cell-based, mouse
Protocol: Total cell lysates were prepared in RIPA lysis buffer (Beyotime Biotechnology) supplemented with 1 mM PMSF and 1× protease inhibitor cocktail (Yeasen), and nuclear protein was extracted by nuclear protein extraction kit (Solarbio) in accordance with the manufacturer’s instructions. The samples were separated by SDS-PAGE and transferred to the PVDF membrane (Millipore). The membranes were incubated with the indicated primary antibodies at 4 °C overnight and then incubated with an HRP-conjugated anti-rabbit IgG antibody (Cell Signaling, Cat# 7074, 1:5000) or anti-mouse IgG antibody (Cell Signaling, Cat# 7076, 1:5000) at room temperature for 1 h. The signal was visualized by using the NcmECL Ultra kit (New Cell & Molecular Biotech) and then was exposed by using MiniChemi (SageCreation).
(§1) Supplementary Fig. 3. […] (a) L929 cells were pretreated for
(§2) 4 h with DMSO or the indicated doses of XQ2, followed by stimulation with dsDNA for 4 h, and then cell lysates were
(§3) (b) Jurkat cells were exposed to the indicated doses of XQ2, and then stimulated with
(§4) Data are representative of three independent experiments in (a, b). (Data are presented as mean ± SD, n = 3 independent
(§5) provided as a Source Data file.
(§6) (1 picture or pasted object on this page, not shown here)

[3] = test system: Jurkat cells
Protocol: Cell viability was measured by cell counting kit-8 (TargetMol) according to the manufacturer’s instructions.
as §1, §2, §3, §4, §5, §6

[4] = Solubility in water (spectrophotometer at 280nm, turbidity); conditions: water
Protocol: Supplementary Fig. 7. […] (a) THP1 cells were exposed to the indicated doses of XQ2 or XQ2B for 48h. The cell viability was measured by CCK8 assay. (b) The comparison of solubility of XQ2 and XQ2B. The maximum concentration of XQ2 or XQ2B dissolved in water was measured by a spectrophotometer at 280nm. […]
Data are representative of three independent experiments with similar results in (e), or three independent experiments in (a -d, f, g) . (Data are presented as mean ± SD, n = 3 independent samples in (a-d, f, g), ns, not significant, **p < 0.01, ***p < 0.001, ****p < 0.0001 using one-way ANOV A with Dunnett’s post hoc test). Source data are provided as a Source Data file.

## CC(C)C[C@@H]1NC(=O)[C@H](CCCNC(=N)N)NC(=O)[C@H](C(C)C)NC(=O)[C@@H]2CCCN2C(=O)[C@@H](Cc2ccccc2)NC(=O)[C@H](CC(C)C)NC(=O)[C@H](CCCNC(=N)N)NC(=O)[C@H]([C@@H](C)O)NC(=O)[C@H](C)NC(=O)[C@@H](Cc2ccccc2)NC1=O [XQ2B] (cyclo([dF]ATRL[dF]PVRL))
[1]; HSV60mer
  IFNB1 mRNA level (Fig. S7c): 40.2098 and 37.8755 and 37.7329
[1]; XQ2B 0.63 μM
  Relative mRNA level CXCL10 (Fig. S7d): 75.7262 and 111.48 and 109.732
  Relative mRNA level IFNB1 (Fig. S7d): 143.341 and 159.417 and 146.307
  Relative mRNA level IL6 (Fig. S7d): 4.851 and 5.001 and 4.853
[1]; XQ2B 1.25 μM
  Relative mRNA level CXCL10 (Fig. S7d): 71.0232 and 80.5931 and 82.552
  Relative mRNA level IFNB1 (Fig. S7d): 150.862 and 127.331 and 129.696
  Relative mRNA level IL6 (Fig. S7d): 5.209 and 4.534 and 5.634
[1]; XQ2B 2.5 μM
  Relative mRNA level CXCL10 (Fig. S7d): 65.3896 and 90.4406 and 75.1347
  Relative mRNA level IFNB1 (Fig. S7d): 125.32 and 106.736 and 118.852
  Relative mRNA level IL6 (Fig. S7d): 3.096 and 3.258 and 2.284
[1]; XQ2B 5 μM
  Relative mRNA level CXCL10 (Fig. S7d): 49.8503 and 48.6212 and 43.7599
  Relative mRNA level IFNB1 (Fig. S7d): 64.7201 and 61.5772 and 71.2108
[1]; XQ2B 10 μM
  Relative mRNA level CXCL10 (Fig. S7d): 34.1653 and 30.6356 and 36.3338
  Relative mRNA level IFNB1 (Fig. S7d): 33.5888 and 35.227 and 34.4163
  Relative mRNA level IL6 (Fig. S7d): 0.9806 and 0.7505 and 1.24
[1]; XQ2B 20 μM
  Relative mRNA level CXCL10 (Fig. S7d): 10.6053 and 10.5964 and 12.3293
  Relative mRNA level IFNB1 (Fig. S7d): 3.764 and 4.346 and 4.187
[1]; ISD
  IFNB1 mRNA level (Fig. S7c): 15.0362 and 16.705 and 17.0928
[1]; Mock
  IFNB1 mRNA level (Fig. S7c): 1.262 and 0.9081 and 0.8724
[1]; THP1
  dsDNA/ISD-induced IFNB1, CXCL10, IL6 expression: comparable cGAS inhibitory effect as that of XQ2
[2]
  ISD-induced autophagy, LC3-II formation: markedly reduced ISD-induced autophagy and cell death
[3]
  ISD-induced cell death: markedly reduced ISD-induced autophagy and cell death
[4]
  Concentration (solubility, Fig. S7b): 2.89 mg/mL and 2.94 mg/mL
  solubility: higher solubility compared to XQ2
[4]; Concentration (solubility, Fig. S7b)
  solubility: 2850 µg/mL (≈ 2370 µM)
